#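 Protocol summary: plate cells (96-well), add compound at 5 concentrations, incubate 48 h, interpolate endpoints linearly. At the GI50, growth is halved.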 Activity calls are given as the source filed them. No stated cut-off is given here; in the data, active = GI50 up to about 1.1 µM and inactive = higher.
# Assays:
# Experiment in all cases: inhibition of tumour cell growth, NCI panel, 48 h
# [1] = test system: SNB-75
# [2] = test system: UACC-62
# [3] = test system: NCI-H522
# [4] = test system: ACHN
# [5] = test system: HCC 2998
# [6] = test system: CAKI-1
# [7] = test system: MDA-MB-435
# [8] = test system: OVCAR-3
# [9] = test system: SF-295
# [10] = test system: 786-0
# [11] = test system: UACC-257
# [12] = test system: SK-MEL-5
# [13] = test system: IGROV-1
# [14] = test system: SK-MEL-28
# [15] = test system: SK-OV-3
# [16] = test system: BT-549
# [17] = test system: MOLT-4
# [18] = test system: OVCAR-4
# [19] = test system: HOP-92
# [20] = test system: TK-10
# [21] = test system: A498
# [22] = test system: HCT-15
# [23] = test system: EKVX
# [24] = test system: KM12
# [25] = test system: A549
# [26] = test system: PC-3
# [27] = test system: HCT-116
# [28] = test system: SF-268
# [29] = test system: NCI-H23
# [30] = test system: SN12C
# [31] = test system: Malme-3M
# [32] = test system: OVCAR-5
# [33] = test system: U-251
# [34] = test system: MCF7
# [35] = test system: SW-620
# [36] = test system: SR
# [37] = test system: SNB-19
# [38] = test system: NCI-H460
# [39] = test system: OVCAR-8
# [40] = test system: RXF 393
# [41] = test system: HOP-62
# [42] = test system: RPMI-8226
# [43] = test system: COLO 205
# [44] = test system: DU-145
# [45] = test system: UO-31
# [46] = test system: M14
# [47] = test system: HT-29
# [48] = test system: SF-539
# [49] = test system: MDA-N
# [50] = test system: HL-60
# [51] = test system: Hs-578T
# [52] = test system: K562
# [53] = test system: CCRF-CEM
# [54] = test system: NCI/ADR-RES
# [55] = test system: LOX IMVI
# [56] = test system: T47D
# [57] = test system: SK-MEL-2
# [58] = test system: MDA-MB-231
# [59] = test system: NCI-H226
structure (smiles),measurement,setting,value
O=C1CN(c2ccccc2)C(=O)CN1CCN1CC(=O)N(c2ccccc2)CC1=O,GI50,[1],> 100 µM (inactive)
same,GI50,[2],> 100 µM (inactive)
same,GI50,[3],> 100 µM (inactive)
same,GI50,[4],> 100 µM (inactive)
same,GI50,[5],> 100 µM (inactive)
same,GI50,[6],> 100 µM (inactive)
same,GI50,[7],> 100 µM (inactive)
same,GI50,[8],> 100 µM (inactive)
same,GI50,[9],> 100 µM (inactive)
same,GI50,[10],> 100 µM (inactive)
same,GI50,[11],> 100 µM (inactive)
same,GI50,[12],> 100 µM (inactive)
same,GI50,[13],> 100 µM (inactive)
same,GI50,[14],> 100 µM (inactive)
same,GI50,[15],> 100 µM (inactive)
same,GI50,[16],> 100 µM (inactive)
same,GI50,[17],> 10 µM (inactive)
same,GI50,[18],> 100 µM (inactive)
same,GI50,[19],> 100 µM (inactive)
same,GI50,[20],> 100 µM (inactive)
same,GI50,[21],> 100 µM (inactive)
same,GI50,[22],> 100 µM
same,GI50,[23],> 100 µM (inactive)
same,GI50,[24],> 100 µM (inactive)
same,GI50,[25],> 100 µM (inactive)
same,GI50,[26],> 100 µM (inactive)
same,GI50,[27],> 100 µM (inactive)
same,GI50,[28],> 100 µM (inactive)
same,GI50,[29],> 100 µM (inactive)
same,GI50,[30],> 100 µM (inactive)
same,GI50,[31],> 100 µM (inactive)
same,GI50,[32],> 100 µM (inactive)
same,GI50,[33],> 100 µM (inactive)
same,GI50,[34],> 100 µM (inactive)
same,GI50,[35],> 100 µM (inactive)
same,GI50,[36],> 100 µM (inactive)
same,GI50,[37],> 100 µM (inactive)
same,GI50,[38],> 100 µM (inactive)
same,GI50,[39],> 100 µM (inactive)
same,GI50,[40],> 100 µM (inactive)
same,GI50,[41],> 100 µM (inactive)
same,GI50,[42],> 100 µM (inactive)
same,GI50,[43],> 100 µM (inactive)
same,GI50,[44],> 100 µM (inactive)
same,GI50,[45],> 100 µM (inactive)
same,GI50,[46],> 100 µM (inactive)
same,GI50,[47],> 100 µM (inactive)
same,GI50,[48],> 100 µM (inactive)
same,GI50,[49],> 100 µM (inactive)
same,GI50,[50],> 100 µM (inactive)
same,GI50,[51],> 100 µM (inactive)
COc1ccc(C)cc1NC(=S)N/N=C/c1ccc(SC)cc1,GI50,[1],> 100 µM (inactive)
same,GI50,[2],> 100 µM (inactive)
same,GI50,[3],82.2 µM (inactive)
same,GI50,[4],> 100 µM (inactive)
same,GI50,[6],47.6 µM (inactive)
same,GI50,[7],38.4 µM (inactive)
same,GI50,[8],38.9 µM (inactive)
same,GI50,[9],69.5 µM (inactive)
same,GI50,[52],35.4 µM (inactive)
same,GI50,[10],83.6 µM (inactive)
same,GI50,[12],21.6 µM (inactive)
same,GI50,[53],54.8 µM (inactive)
same,GI50,[13],42.8 µM (inactive)
same,GI50,[14],86.7 µM (inactive)
same,GI50,[15],19.5 µM (inactive)
same,GI50,[16],49.3 µM (inactive)
same,GI50,[17],45.4 µM (inactive)
same,GI50,[18],57.8 µM (inactive)
same,GI50,[19],93.5 µM (inactive)
same,GI50,[21],> 100 µM (inactive)
same,GI50,[22],39.6 µM
same,GI50,[54],60.1 µM (inactive)
same,GI50,[24],67.5 µM (inactive)
same,GI50,[25],> 100 µM (inactive)
same,GI50,[26],75 µM (inactive)
same,GI50,[27],69.3 µM (inactive)
same,GI50,[28],> 100 µM (inactive)
same,GI50,[29],50.2 µM (inactive)
same,GI50,[30],> 100 µM (inactive)
same,GI50,[31],96.4 µM (inactive)
same,GI50,[32],25.1 µM (inactive)
same,GI50,[34],> 100 µM (inactive)
same,GI50,[35],53.8 µM (inactive)
same,GI50,[36],38.5 µM (inactive)
same,GI50,[55],59.6 µM (inactive)
same,GI50,[37],> 100 µM (inactive)
same,GI50,[39],57.1 µM (inactive)
same,GI50,[40],58.5 µM (inactive)
same,GI50,[56],60.7 µM (inactive)
same,GI50,[41],28.8 µM (inactive)
same,GI50,[42],27.9 µM (inactive)
same,GI50,[43],40.1 µM (inactive)
same,GI50,[44],66.8 µM (inactive)
same,GI50,[45],84.3 µM (inactive)
same,GI50,[46],25.5 µM (inactive)
same,GI50,[47],34.1 µM (inactive)
same,GI50,[48],27.8 µM (inactive)
same,GI50,[49],36.3 µM (inactive)
same,GI50,[50],31.8 µM (inactive)
same,GI50,[57],55.6 µM (inactive)
same,GI50,[51],> 100 µM (inactive)
COCOC1C=CCCCC2=CC(C)=C(CC1)O2 (stereo not drawn),GI50,[1],> 100 µM (inactive)
same,GI50,[2],> 100 µM (inactive)
same,GI50,[3],> 100 µM (inactive)
same,GI50,[4],> 100 µM (inactive)
same,GI50,[5],> 100 µM (inactive)
same,GI50,[6],> 100 µM (inactive)
same,GI50,[7],> 100 µM (inactive)
same,GI50,[8],68.4 µM (inactive)
same,GI50,[9],> 100 µM (inactive)
same,GI50,[52],> 100 µM (inactive)
same,GI50,[10],> 100 µM (inactive)
same,GI50,[11],> 100 µM (inactive)
same,GI50,[12],> 100 µM (inactive)
same,GI50,[53],74.6 µM (inactive)
same,GI50,[13],> 100 µM (inactive)
same,GI50,[14],> 100 µM (inactive)
same,GI50,[58],> 100 µM (inactive)
same,GI50,[15],> 100 µM (inactive)
same,GI50,[16],> 100 µM (inactive)
same,GI50,[17],42.3 µM (inactive)
same,GI50,[18],> 100 µM (inactive)
same,GI50,[19],> 100 µM (inactive)
same,GI50,[20],> 100 µM (inactive)
same,GI50,[59],> 100 µM (inactive)
same,GI50,[21],> 100 µM (inactive)
same,GI50,[22],> 100 µM
same,GI50,[54],> 100 µM (inactive)
same,GI50,[23],> 100 µM (inactive)
same,GI50,[24],> 100 µM (inactive)
same,GI50,[25],> 100 µM (inactive)
same,GI50,[26],> 100 µM (inactive)
same,GI50,[27],> 100 µM (inactive)
same,GI50,[28],> 100 µM (inactive)
same,GI50,[29],> 100 µM (inactive)
same,GI50,[30],> 100 µM (inactive)
same,GI50,[31],> 100 µM (inactive)
same,GI50,[32],> 100 µM (inactive)
same,GI50,[33],> 100 µM (inactive)
same,GI50,[34],> 100 µM (inactive)
same,GI50,[35],> 100 µM (inactive)
same,GI50,[36],61.7 µM (inactive)
same,GI50,[55],> 100 µM (inactive)
same,GI50,[37],> 100 µM (inactive)
same,GI50,[38],> 100 µM (inactive)
same,GI50,[39],> 100 µM (inactive)
same,GI50,[40],> 100 µM (inactive)
same,GI50,[41],> 100 µM (inactive)
same,GI50,[42],> 100 µM (inactive)
same,GI50,[43],> 100 µM (inactive)
same,GI50,[44],> 100 µM (inactive)
same,GI50,[45],> 100 µM (inactive)
same,GI50,[46],> 100 µM (inactive)
same,GI50,[47],99.1 µM (inactive)
same,GI50,[48],> 100 µM (inactive)
same,GI50,[49],> 100 µM (inactive)
same,GI50,[51],> 100 µM (inactive)
